Measured values as given in ChEMBL document CHEMBL6078706, “Deciphering the Comprehensive Structure-Activity Relationship of Sunshinamide for Breast Cancer Therapy through Dual Modulation of Apoptotic and Ferroptotic Pathways via TrxR1 and Gpx4 Inhibition” (J Med Chem, 2024).
The source made the active and inactive calls. The rule behind the calls is not given here.

Legend:
[1] = system: HEK293; assay: Antiproliferative activity against human HEK293 cells assessed as cell viability upto 50 nM incubated for 48 hrs by MTT assay; format: toxicity, cell-based; conditions: hek293, 48 h, 0.05 µM
[2] = system: MDA-MB-468; assay: Induction of ferroptosis in human MDA-MB-468 cells assessed as increase in cell viability at 25 nM incubated for 48 hrs; format: functional, cell-based
[3] = system: MDA-MB-468; assay: Antiproliferative activity against human MDA-MB-468 cells assessed as cell viability at 10 nM incubated for 48 hrs by MTT assay; format: functional, cell-based
[4] = system: A549; assay: Antiproliferative activity against human A549 cells assessed as cell viability at 10 nM incubated for 48 hrs by MTT assay; format: functional, cell-based

SMILES | Activity [1] | Activity [2] | Activity [3] | Activity [4]
CCCCCCC[C@@H]1CC(=O)N[C@H](CC(C)C)C(=O)N[C@H]2CSSC[C@H](NC2=O)C(=O)O1 | Non-toxic | – | – | –
CCOC(=O)c1ccc(NC2CCCCC2)c(N)c1 | – | Active | – | –
CCCCCCC[C@H]1CC(=O)N[C@H](Cc2ccccc2)C(=O)N[C@H]2CSSC[C@H](NC2=O)C(=O)O1 | Non-toxic | – | – | –
O=C1C[C@@H](c2ccccc2)OC(=O)[C@@H]2CSSC[C@H](NC(=O)[C@@H](Cc3ccccc3)N1)C(=O)N2 | Non-toxic | – | Active | Active
CC[C@@H]1CC(=O)N[C@H](Cc2ccccc2)C(=O)N[C@H]2CSSC[C@H](NC2=O)C(=O)O1 | Non-toxic | – | Active | Active
CCCCCCC[C@@H]1CC(=O)NCC(=O)N[C@H]2CSSC[C@H](NC2=O)C(=O)O1 | Non-toxic | – | – | –
CC(C)(C)OC(=O)N[C@@H]1CSSC[C@@H](C(=O)OC(C)(C)C)NC1=O | Non-toxic | – | – | –
CCCCCCC[C@@H]1CC(=O)N[C@H](CO)C(=O)N[C@H]2CSSC[C@H](NC2=O)C(=O)O1 | Non-toxic | – | – | –
